Assay results: the NIST ThermoML archive (doi:10.1016/j.jct.2013.04.021)

Assay: xn = mol fraction of the nth substance listed
Settings: 101 kPa, Liquid; for mass density: Vibrating tube method; for speed of sound: fixed-path interferometer; for viscosity: Capillary tube (Ostwald / Ubbelohde) method

CCCCOCCO [2-butoxyethan-1-ol] + CCCCCCO
Settings | mass density [kg/m3] | speed of sound [m/s] | viscosity [mPa·s]
293.15 K, x1 = 0.0535 | 823.637 | 1320 | –
293.15 K, x1 = 0.1046 | 827.82 | 1319.4 | –
293.15 K, x1 = 0.1546 | 831.917 | 1319.1 | –
293.15 K, x1 = 0.2054 | 836.077 | 1318.8 | –
293.15 K, x1 = 0.253 | 839.982 | 1318.5 | –
293.15 K, x1 = 0.2999 | 843.819 | 1318.3 | –
293.15 K, x1 = 0.4044 | 852.353 | 1318.3 | –
293.15 K, x1 = 0.5039 | 860.457 | 1318.5 | –
293.15 K, x1 = 0.5932 | 867.724 | 1318.9 | –
293.15 K, x1 = 0.7003 | 876.414 | 1319.6 | –
293.15 K, x1 = 0.8019 | 884.63 | 1320.7 | –
293.15 K, x1 = 0.8545 | 888.867 | 1321.4 | –
293.15 K, x1 = 0.8987 | 892.418 | 1322 | –
293.15 K, x1 = 0.9522 | 896.698 | 1322.8 | –
298.15 K, x1 = 0.0535 | 820.01 | 1303.1 | 4.359
298.15 K, x1 = 0.1046 | 824.093 | 1302.6 | 4.133
298.15 K, x1 = 0.1546 | 828.161 | 1302.2 | 4.004
298.15 K, x1 = 0.2054 | 832.312 | 1301.8 | 3.821
298.15 K, x1 = 0.253 | 836.221 | 1301.6 | 3.691
298.15 K, x1 = 0.2999 | 840.066 | 1301.4 | 3.616
298.15 K, x1 = 0.4044 | 848.606 | 1301.3 | 3.464
298.15 K, x1 = 0.5039 | 856.686 | 1301.5 | 3.305
298.15 K, x1 = 0.5932 | 863.892 | 1301.8 | 3.139
298.15 K, x1 = 0.7003 | 872.492 | 1302.6 | 3.046
298.15 K, x1 = 0.8019 | 880.623 | 1303.6 | 2.996
298.15 K, x1 = 0.8545 | 884.811 | 1304.3 | 2.908
298.15 K, x1 = 0.8987 | 888.334 | 1305 | 2.897
298.15 K, x1 = 0.9522 | 892.569 | 1305.7 | 2.871
303.15 K, x1 = 0.0535 | 816.368 | 1286.3 | 3.706
303.15 K, x1 = 0.1046 | 820.503 | 1285.8 | 3.56
303.15 K, x1 = 0.1546 | 824.557 | 1285.5 | 3.421
303.15 K, x1 = 0.2054 | 828.676 | 1285.2 | 3.3
303.15 K, x1 = 0.253 | 832.536 | 1284.9 | 3.19
303.15 K, x1 = 0.2999 | 836.324 | 1284.8 | 3.1
303.15 K, x1 = 0.4044 | 844.739 | 1284.7 | 2.916
303.15 K, x1 = 0.5039 | 852.713 | 1284.8 | 2.781
303.15 K, x1 = 0.5932 | 859.852 | 1285.2 | 2.694
303.15 K, x1 = 0.7003 | 868.399 | 1285.9 | 2.631
303.15 K, x1 = 0.8019 | 876.485 | 1286.8 | 2.583
303.15 K, x1 = 0.8545 | 880.662 | 1287.4 | 2.573
303.15 K, x1 = 0.8987 | 884.162 | 1288 | 2.595
303.15 K, x1 = 0.9522 | 888.376 | 1288.7 | 2.613
308.15 K, x1 = 0.0535 | 812.694 | 1269.6 | 3.243
308.15 K, x1 = 0.1046 | 816.794 | 1269.2 | 3.12
308.15 K, x1 = 0.1546 | 820.816 | 1268.8 | 3.006
308.15 K, x1 = 0.2054 | 824.902 | 1268.6 | 2.896
308.15 K, x1 = 0.253 | 828.737 | 1268.3 | 2.807
308.15 K, x1 = 0.2999 | 832.499 | 1268.2 | 2.736
308.15 K, x1 = 0.4044 | 840.855 | 1268.1 | 2.597
308.15 K, x1 = 0.5039 | 848.772 | 1268.2 | 2.499
308.15 K, x1 = 0.5932 | 855.859 | 1268.6 | 2.43
308.15 K, x1 = 0.7003 | 864.345 | 1269.2 | 2.367
308.15 K, x1 = 0.8019 | 872.393 | 1270.1 | 2.311
308.15 K, x1 = 0.8545 | 876.541 | 1270.6 | 2.284
308.15 K, x1 = 0.8987 | 880.024 | 1271.1 | 2.275
308.15 K, x1 = 0.9522 | 884.199 | 1271.8 | 2.242
313.15 K, x1 = 0.0535 | 809.018 | 1253 | –
313.15 K, x1 = 0.1046 | 813.092 | 1252.7 | –
313.15 K, x1 = 0.1546 | 817.077 | 1252.4 | –
313.15 K, x1 = 0.2054 | 821.127 | 1252.2 | –
313.15 K, x1 = 0.253 | 824.921 | 1252 | –
313.15 K, x1 = 0.2999 | 828.653 | 1251.9 | –
313.15 K, x1 = 0.4044 | 836.942 | 1251.8 | –
313.15 K, x1 = 0.5039 | 844.805 | 1251.9 | –
313.15 K, x1 = 0.5932 | 851.852 | 1252.2 | –
313.15 K, x1 = 0.7003 | 860.279 | 1252.7 | –
313.15 K, x1 = 0.8019 | 868.245 | 1253.4 | –
313.15 K, x1 = 0.8545 | 872.354 | 1253.9 | –
313.15 K, x1 = 0.8987 | 875.803 | 1254.3 | –
313.15 K, x1 = 0.9522 | 879.956 | 1254.9 | –
